Assay results taken from patent US12258327B2, “5-membered heteroaryl-containing aminopyridine compounds as EGFR inhibitors” (YUHAN CORPORATION, priority 2021, dated 2025).
Where two headings read alike, the source gives them in different places.

How the values were obtained:
EGFR del19/T790M/C797S = EGFR del19/T790M/C797S (Homo sapiens, UniProt P00533, C797S/DEL746-750/T790M); assay: Biochemical EGFR kinase assay (Lance Ultra TR-FRET), triple mutant del19/T790M/C797S
Method in brief: (§1)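 Kinase activity is measured by TR-FRET phosphopeptide detection. Compounds span 0.003 μM to 10 μM; the 1 h reaction at room temperature is quenched with EDTA, then labelled antibody (2 nM) is incubated 60 min before reading.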

EGFR L858R/T790M/C797S = EGFR L858R/T790M/C797S (Homo sapiens, UniProt P00533, C797S/L858R/T790M); assay: Biochemical EGFR kinase assay (Lance Ultra TR-FRET), triple mutant L858R/T790M/C797S
Method in brief: as §1

EGFR del19/C797S = EGFR del19/C797S (Homo sapiens, UniProt P00533, C797S/DEL746-750); assay: Biochemical EGFR kinase assay (Lance Ultra TR-FRET), double mutant del19/C797S
Method in brief: as §1

EGFR L858R/C797S = EGFR L858R/C797S (Homo sapiens, UniProt P00533, C797S/L858R); assay: Biochemical EGFR kinase assay (Lance Ultra TR-FRET), double mutant L858R/C797S
Method in brief: as §1

EGFR wildtype (WT) = EGFR wildtype (WT) (Homo sapiens, UniProt P00533); assay: Biochemical EGFR kinase assay (Lance Ultra TR-FRET), wildtype
Method in brief: as §1

[1] = Km ATP, read-out: IC50 del19/T790M/C797S (nM) Km ATP
[2] = Km ATP, read-out: IC50 L858R/T790M/C797S (nM) Km ATP
[3] = Km ATP, read-out: IC50 del19/C797S (nM) Km ATP
[4] = Km ATP, read-out: IC50 L858R/C797S (nM) Km ATP
[5] = Km ATP, read-out: IC50 WT (nM) Km ATP
[6] = IC50 del19/T790M/C797S (nM) 100 μM ATP, 100 μM ATP
[7] = IC50 L858R/T790M/C797S (nM) 100 μM ATP, 100 μM ATP
[8] = IC50 del19/C797S (nM) 100 μM ATP, 100 μM ATP
[9] = IC50 L858R/C797S (nM) 100 μM ATP, 100 μM ATP
[10] = IC50 WT (nM) 100 μM ATP, 100 μM ATP

Chain of EGFR L858R/C797S (P00533 25-1210 C797S/L858R): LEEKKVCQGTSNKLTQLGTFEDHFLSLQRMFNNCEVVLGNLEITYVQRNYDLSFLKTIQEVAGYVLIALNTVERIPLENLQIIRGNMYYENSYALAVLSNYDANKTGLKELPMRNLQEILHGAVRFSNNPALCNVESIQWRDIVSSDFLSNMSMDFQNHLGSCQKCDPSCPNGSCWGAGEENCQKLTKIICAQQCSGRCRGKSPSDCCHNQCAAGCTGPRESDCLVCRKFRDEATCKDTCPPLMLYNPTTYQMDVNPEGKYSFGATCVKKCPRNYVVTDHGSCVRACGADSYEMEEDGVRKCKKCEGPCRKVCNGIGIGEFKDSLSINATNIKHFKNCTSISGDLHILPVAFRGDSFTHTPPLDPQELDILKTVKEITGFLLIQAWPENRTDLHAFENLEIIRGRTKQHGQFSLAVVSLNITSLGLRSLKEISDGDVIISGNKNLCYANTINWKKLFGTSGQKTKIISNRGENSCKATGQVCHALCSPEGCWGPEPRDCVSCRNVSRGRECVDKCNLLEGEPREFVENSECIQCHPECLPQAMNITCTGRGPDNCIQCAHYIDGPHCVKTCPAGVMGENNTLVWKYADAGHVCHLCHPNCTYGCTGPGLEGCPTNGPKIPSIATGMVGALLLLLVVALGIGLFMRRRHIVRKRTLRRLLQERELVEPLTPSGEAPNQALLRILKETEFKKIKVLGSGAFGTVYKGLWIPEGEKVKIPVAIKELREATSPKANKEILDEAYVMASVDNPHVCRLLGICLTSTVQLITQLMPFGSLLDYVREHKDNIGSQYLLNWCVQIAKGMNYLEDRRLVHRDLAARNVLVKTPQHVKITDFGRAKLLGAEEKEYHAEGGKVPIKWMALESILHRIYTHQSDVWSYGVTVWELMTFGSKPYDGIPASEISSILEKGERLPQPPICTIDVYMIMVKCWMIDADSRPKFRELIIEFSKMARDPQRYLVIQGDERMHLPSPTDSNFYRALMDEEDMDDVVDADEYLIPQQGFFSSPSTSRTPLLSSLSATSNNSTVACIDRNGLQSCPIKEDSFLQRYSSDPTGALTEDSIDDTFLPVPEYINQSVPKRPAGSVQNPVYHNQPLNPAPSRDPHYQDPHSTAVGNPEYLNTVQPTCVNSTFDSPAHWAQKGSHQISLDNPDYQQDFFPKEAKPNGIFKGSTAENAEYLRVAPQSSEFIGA
Chain of EGFR L858R/T790M/C797S (P00533 25-1210 T790M/C797S/L858R): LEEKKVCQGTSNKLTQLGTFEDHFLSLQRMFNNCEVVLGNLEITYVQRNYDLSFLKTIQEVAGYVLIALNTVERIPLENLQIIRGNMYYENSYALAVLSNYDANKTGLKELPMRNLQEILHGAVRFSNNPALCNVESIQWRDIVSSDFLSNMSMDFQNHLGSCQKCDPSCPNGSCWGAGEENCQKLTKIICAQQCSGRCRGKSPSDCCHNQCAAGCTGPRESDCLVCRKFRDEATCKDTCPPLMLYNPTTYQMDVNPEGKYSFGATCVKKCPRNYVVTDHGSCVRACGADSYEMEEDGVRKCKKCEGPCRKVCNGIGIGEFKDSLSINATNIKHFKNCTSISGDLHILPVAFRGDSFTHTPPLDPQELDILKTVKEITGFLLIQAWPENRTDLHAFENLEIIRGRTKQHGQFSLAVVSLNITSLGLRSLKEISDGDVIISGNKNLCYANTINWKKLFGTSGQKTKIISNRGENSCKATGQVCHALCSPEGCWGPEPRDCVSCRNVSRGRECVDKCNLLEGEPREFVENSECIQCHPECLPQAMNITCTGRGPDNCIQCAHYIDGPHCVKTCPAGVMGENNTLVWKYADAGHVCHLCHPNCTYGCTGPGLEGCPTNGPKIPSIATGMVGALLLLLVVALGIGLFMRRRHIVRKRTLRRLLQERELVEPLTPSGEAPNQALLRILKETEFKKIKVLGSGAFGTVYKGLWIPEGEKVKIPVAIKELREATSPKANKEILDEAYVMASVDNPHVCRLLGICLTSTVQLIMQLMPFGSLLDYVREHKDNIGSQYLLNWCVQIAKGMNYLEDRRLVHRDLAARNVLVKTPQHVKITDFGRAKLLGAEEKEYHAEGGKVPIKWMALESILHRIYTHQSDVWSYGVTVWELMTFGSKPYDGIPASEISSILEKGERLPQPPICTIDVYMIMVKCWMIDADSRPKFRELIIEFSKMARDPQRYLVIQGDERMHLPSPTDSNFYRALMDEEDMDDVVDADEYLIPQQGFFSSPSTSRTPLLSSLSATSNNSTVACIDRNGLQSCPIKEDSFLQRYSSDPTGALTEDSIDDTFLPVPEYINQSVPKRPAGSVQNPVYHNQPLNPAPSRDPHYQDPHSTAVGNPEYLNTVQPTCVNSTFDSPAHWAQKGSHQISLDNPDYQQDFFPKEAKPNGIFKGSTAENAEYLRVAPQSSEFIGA
Chain of EGFR del19/T790M/C797S (P00533 with tags, fused parts or gaps DEL746-750/T790M/C797S): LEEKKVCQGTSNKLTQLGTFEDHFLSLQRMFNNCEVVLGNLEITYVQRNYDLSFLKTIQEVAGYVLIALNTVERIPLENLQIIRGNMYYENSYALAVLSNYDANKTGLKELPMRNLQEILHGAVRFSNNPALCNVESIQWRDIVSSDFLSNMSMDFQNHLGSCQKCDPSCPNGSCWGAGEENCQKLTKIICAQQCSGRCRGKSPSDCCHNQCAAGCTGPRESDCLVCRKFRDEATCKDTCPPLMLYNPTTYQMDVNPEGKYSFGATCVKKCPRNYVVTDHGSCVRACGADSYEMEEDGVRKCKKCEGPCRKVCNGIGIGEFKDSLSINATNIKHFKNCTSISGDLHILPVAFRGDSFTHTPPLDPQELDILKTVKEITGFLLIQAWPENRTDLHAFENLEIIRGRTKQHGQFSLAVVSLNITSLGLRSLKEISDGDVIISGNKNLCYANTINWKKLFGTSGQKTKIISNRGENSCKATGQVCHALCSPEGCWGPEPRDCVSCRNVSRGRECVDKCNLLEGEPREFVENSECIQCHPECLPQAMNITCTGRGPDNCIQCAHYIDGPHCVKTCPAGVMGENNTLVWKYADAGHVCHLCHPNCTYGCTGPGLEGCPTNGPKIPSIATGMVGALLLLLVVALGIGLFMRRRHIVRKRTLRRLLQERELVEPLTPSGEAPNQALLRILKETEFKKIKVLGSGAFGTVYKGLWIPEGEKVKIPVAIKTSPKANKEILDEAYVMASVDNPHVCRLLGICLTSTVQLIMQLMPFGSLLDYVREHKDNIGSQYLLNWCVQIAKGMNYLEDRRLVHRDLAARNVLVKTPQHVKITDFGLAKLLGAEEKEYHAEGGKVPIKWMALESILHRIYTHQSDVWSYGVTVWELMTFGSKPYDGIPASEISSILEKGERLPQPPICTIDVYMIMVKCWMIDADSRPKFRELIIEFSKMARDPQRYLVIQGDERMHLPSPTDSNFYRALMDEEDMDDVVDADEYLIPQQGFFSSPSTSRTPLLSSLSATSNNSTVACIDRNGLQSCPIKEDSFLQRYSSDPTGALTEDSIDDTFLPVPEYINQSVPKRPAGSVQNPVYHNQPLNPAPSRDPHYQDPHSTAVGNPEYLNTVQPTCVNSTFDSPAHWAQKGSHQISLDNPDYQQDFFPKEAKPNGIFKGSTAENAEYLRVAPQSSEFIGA
Chain of EGFR wildtype (WT) (P00533 25-1210): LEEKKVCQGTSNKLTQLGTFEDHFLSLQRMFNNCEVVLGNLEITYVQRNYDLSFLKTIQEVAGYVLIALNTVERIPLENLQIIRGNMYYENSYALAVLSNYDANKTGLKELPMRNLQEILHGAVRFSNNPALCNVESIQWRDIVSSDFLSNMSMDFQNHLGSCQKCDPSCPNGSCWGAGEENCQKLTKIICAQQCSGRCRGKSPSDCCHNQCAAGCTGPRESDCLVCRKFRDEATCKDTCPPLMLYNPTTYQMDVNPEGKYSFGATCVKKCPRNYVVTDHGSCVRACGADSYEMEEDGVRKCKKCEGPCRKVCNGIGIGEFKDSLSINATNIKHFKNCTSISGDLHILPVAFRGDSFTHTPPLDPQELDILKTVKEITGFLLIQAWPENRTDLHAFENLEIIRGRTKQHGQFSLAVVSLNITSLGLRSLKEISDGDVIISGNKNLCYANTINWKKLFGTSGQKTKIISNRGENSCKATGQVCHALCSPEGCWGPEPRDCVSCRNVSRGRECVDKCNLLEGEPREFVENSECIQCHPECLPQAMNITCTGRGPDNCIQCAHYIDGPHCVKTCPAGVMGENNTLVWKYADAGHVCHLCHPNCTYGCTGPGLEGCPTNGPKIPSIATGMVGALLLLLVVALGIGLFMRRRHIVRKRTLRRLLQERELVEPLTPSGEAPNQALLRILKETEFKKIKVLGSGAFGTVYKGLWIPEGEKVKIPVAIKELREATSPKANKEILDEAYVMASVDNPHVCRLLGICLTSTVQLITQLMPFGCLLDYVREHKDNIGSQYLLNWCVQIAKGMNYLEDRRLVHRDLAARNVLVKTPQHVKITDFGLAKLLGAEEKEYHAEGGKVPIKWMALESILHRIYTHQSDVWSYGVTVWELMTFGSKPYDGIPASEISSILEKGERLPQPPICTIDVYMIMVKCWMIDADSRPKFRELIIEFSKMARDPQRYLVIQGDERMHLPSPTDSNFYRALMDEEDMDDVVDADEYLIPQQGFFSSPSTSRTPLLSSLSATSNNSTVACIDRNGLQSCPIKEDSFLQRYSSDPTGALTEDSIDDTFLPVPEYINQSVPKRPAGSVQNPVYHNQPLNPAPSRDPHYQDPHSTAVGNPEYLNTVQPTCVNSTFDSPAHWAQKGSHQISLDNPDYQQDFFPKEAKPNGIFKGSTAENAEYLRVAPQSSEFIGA

| IC50 (EGFR del19/T790M/C797S; [1]) | IC50 (EGFR L858R/T790M/C797S; [2]) | IC50 (EGFR del19/C797S; [3]) | IC50 (EGFR L858R/C797S; [4]) | IC50 (EGFR wildtype (WT); [5]) | IC50 (EGFR del19/T790M/C797S; [6]) | IC50 (EGFR L858R/T790M/C797S; [7]) | IC50 (EGFR del19/C797S; [8]) | IC50 (EGFR L858R/C797S; [9]) | IC50 (EGFR wildtype (WT); [10]) | IC50 (EGFR del19/T790M/C797S; read-out: IC50 del19/T790M/C797S (nM) 100 μM ATP, 100 μM ATP) | IC50 (EGFR L858R/T790M/C797S; read-out: IC50 L858R/T790M/C797S (nM) 100 μM ATP, 100 μM ATP) | IC50 (EGFR del19/C797S; read-out: IC50 del19/C797S (nM) 100 μM ATP, 100 μM ATP) | IC50 (EGFR L858R/C797S; read-out: IC50 L858R/C797S (nM) 100 μM ATP, 100 μM ATP) | IC50 (EGFR wildtype (WT); read-out: IC50 WT (nM) 100 μM ATP, 100 μM ATP) | SMILES |
| --- | --- | --- | --- | --- | --- | --- | --- | --- | --- | --- | --- | --- | --- | --- | --- |
| 0.1 nM | 0.05 nM | 4.8 nM | 2 nM | 32 nM |  |  |  |  |  |  |  |  |  |  | Cc1cnn(-c2cnc(Nc3ccnc(-c4cnn(S(=O)(=O)C5CC5)c4)n3)cc2N[C@H]2CC[C@@](C)(O)CC2)c1 [Example 184, (1s,4s)-4-((2-((2-(1-(Cyclopropylsulfonyl)-1H-pyrazol-4-yl)pyrimidin-4-yl)amino)-5-(4-methyl-1H-pyrazol-1-yl)pyridin-4-yl)amino)-1-methylcyclohexan-1-ol] |
| 30.9 nM | 9.7 nM | 125 nM | 55.7 nM | 408 nM |  |  |  |  |  |  |  |  |  |  | O=S(=O)(C1CC1)n1cc(-c2nccc(Nc3cc(N[C@H]4CC[C@@H](C(F)F)CC4)c(-c4ccn(C(F)F)n4)cn3)n2)cn1 [Example 157, N^2-(2-(1-(Cyclopropylsulfonyl)-1H-pyrazol-4-yl)pyrimidin-4-yl)-5-(1-(difluoromethyl)-1H-pyrazol-3-yl)-N^4-((1s,4s)-4-(difluoromethyl)cyclohexyl)pyridine-2,4-diamine] |
| 1.1 nM | 0.5 nM | 1.4 nM | 2.7 nM | 10.6 nM | 1.3 nM | 1.4 nM | 6.6 nM | 17.8 nM | > 10000 nM |  |  |  |  |  | O=S(=O)(C1CC1)n1cc(-c2nccc(Nc3cc(N[C@H]4CCC[C@H](CO)C4)c(-c4ccn(C(F)F)n4)cn3)n2)cn1 [Example 202, ((1S,3S)-3-((2-((2-(1-(Cyclopropylsulfonyl)-1H-pyrazol-4-yl)pyrimidin-4-yl)amino)-5-(1-(difluoromethyl)-1H-pyrazol-3-yl)pyridin-4-yl)amino)cyclohexyl)methanol] |
| 9.1 nM | 5.9 nM | 171 nM | 47.9 nM | 1290 nM |  |  |  |  |  |  |  |  |  |  | O=S(=O)(C1CC1)n1cc(-c2nccc(Nc3cc(N[C@H]4CC[C@@H](F)CC4)c(-c4ccn(CCC(F)(F)F)n4)cn3)n2)cn1 [Example 306, N^2-(2-(1-(Cyclopropylsulfonyl)-1H-pyrazol-4-yl)pyrimidin-4-yl)-N^4-((1s,4s)-4-fluorocyclohexyl)-5-(1-(3,3,3-trifluoropropyl)-1H-pyrazol-3-yl)pyridine-2,4-diamine] |
|  |  |  |  |  | 1.2 nM | 2.8 nM | 30 nM | 46.9 nM | > 10000 nM |  |  |  |  |  | O=S(=O)(C1CC1)n1cc(-c2nccc(Nc3cc(N[C@@H]4CC[C@@H](O)C4)c(-c4ccn(C(F)F)n4)cn3)n2)cn1 [Example 12, (1R,3R)-3-((2-((2-(1-(Cyclopropylsulfonyl)-1H-pyrazol-4-yl)pyrimidin-4-yl)amino)-5-(1-(difluoromethyl)-1H-pyrazol-3-yl)pyridin-4-yl)amino)cyclopentan-1-ol] |
|  | 0.3 nM | 1 nM | 1.1 nM | 1.6 nM | 1.8 nM | 1 nM | 0.8 nM | 1.7 nM | 504 nM |  |  |  |  |  | Cn1nc(-c2cnc(Nc3ccnc(-c4cnn(S(=O)(=O)C5CC5)c4)n3)cc2N[C@H]2CC[C@@H](C(C)(C)O)CC2)cc1C(C)(C)O [Example 298, 2-(3-(6-((2-(1-(Cyclopropylsulfonyl)-1H-pyrazol-4-yl)pyrimidin-4-yl)amino)-4-(((1s,4s)-4-(2-hydroxypropan-2-yl)cyclohexyl)amino)pyridin-3-yl)-1-methyl-1H-pyrazol-5-yl)propan-2-ol] |
| 0.3 nM | 0.2 nM | 0.6 nM | 0.4 nM | 4.4 nM | 0.6 nM | 0.4 nM | 1 nM | 10.1 nM | 3960 nM |  |  |  |  |  | CN(C)C(=O)C[C@H]1CC[C@@H](Nc2cc(Nc3ccnc(-c4cnn(S(=O)(=O)C5CC5)c4)n3)ncc2-c2ccn(C(F)F)n2)CC1 [Example 205, 2-((1s,4s)-4-((2-((2-(1-(Cyclopropylsulfonyl)-1H-pyrazol-4-yl)pyrimidin-4-yl)amino)-5-(1-(difluoromethyl)-1H-pyrazol-3-yl)pyridin-4-yl)amino)cyclohexyl)-N,N-dimethylacetamide] |
|  |  |  |  |  | 0.3 nM | 0.3 nM | 2 nM | 2.1 nM | 3390 nM |  |  |  |  |  | CNC1CCC(Nc2cc(Nc3ccnc(-c4cnn(S(=O)(=O)C5CC5)c4)n3)ncc2-c2ccn(C(F)F)n2)CC1 (centres unmarked) [Example 16, N^2-(2-(1-(Cyclopropylsulfonyl)-1H-pyrazol-4-yl)pyrimidin-4-yl)-5-(1-(difluoromethyl)-1H-pyrazol-3-yl)-N^4-((1s,4s)-4-(methylamino)cyclohexyl)pyridine-2,4-diamine] |
|  |  |  |  |  | 4.8 nM | 5.4 nM | 38.5 nM | 161 nM | > 10000 nM |  |  |  |  |  | O=S(=O)(C1CC1)n1cc(-c2nccc(Nc3cc(N[C@H]4CC[C@@H](O)CC4)c(-c4cnn(C5CC5)c4)cn3)n2)cn1 [Example 78, (1s,4s)-4-((5-(1-Cyclopropyl-1H-pyrazol-4-yl)-2-((2-(1-(cyclopropylsulfonyl)-1H-pyrazol-4-yl)pyrimidin-4-yl)amino)pyridin-4-yl)amino)cyclohexan-1-ol] |
|  |  |  |  |  | 5.5 nM | 5.7 nM | 18.8 nM | 21.9 nM | > 10000 nM |  |  |  |  |  | CC(C)(O)[C@H]1CC[C@@H](Nc2cc(Nc3ccnc(-c4cnn(S(=O)(=O)C5CC5)c4)n3)ncc2-c2ccn(C(F)F)n2)CC1 [Example 8, 2-((1s,4s)-4-((2-((2-(1-(Cyclopropylsulfonyl)-1H-pyrazol-4-yl)pyrimidin-4-yl)amino)-5-(1-(difluoromethyl)-1H-pyrazol-3-yl)pyridin-4-yl)amino)cyclohexyl)propan-2-ol] |
| 0.5 nM | 0.2 nM | 7.3 nM | 6.3 nM | 95.8 nM | 0.6 nM | 1.7 nM | 6.1 nM | 55.9 nM | > 10000 nM |  |  |  |  |  | CC1(O)CCC(Oc2cc(Nc3ccnc(-c4cnn(S(=O)(=O)C5CC5)c4)n3)ncc2-c2ccn(C(F)F)n2)CC1 (centres unmarked) [Example 68, 4-((2-((2-(1-(Cyclopropylsulfonyl)-1H-pyrazol-4-yl)pyrimidin-4-yl)amino)-5-(1-(difluoromethyl)-1H-pyrazol-3-yl)pyridin-4-yl)oxy)-1-methylcyclohexan-1-ol] |
| 1.2 nM | 0.5 nM | 34.5 nM | 34.9 nM | 220 nM |  |  |  |  |  | 2.1 nM | 4.9 nM | 75.4 nM | 60.7 nM | > 10000 nM | CS(=O)(=O)n1cc(-c2nccc(Nc3cc(N[C@H]4CC[C@@](C)(O)CC4)c(-c4ccn(C(F)F)n4)cn3)n2)cn1 [Example 112, (1s,4s)-4-((5-(1-(Difluoromethyl)-1H-pyrazol-3-yl)-2-((2-(1-(methylsulfonyl)-1H-pyrazol-4-yl)pyrimidin-4-yl)amino)pyridin-4-yl)amino)-1-methylcyclohexan-1-ol] |
|  |  |  |  |  | 3.5 nM | 25.6 nM | 30.1 nM | 1020 nM | > 10000 nM |  |  |  |  |  | CN(C)C(=O)n1cc(-c2nccc(Nc3cc(N[C@H]4CC[C@@](C)(O)CC4)c(-c4ccn(C(F)F)n4)cn3)n2)cn1 [Example 311, 4-(4-((5-(1-(Difluoromethyl)-1H-pyrazol-3-yl)-4-(((1s,4s)-4-hydroxy-4-methylcyclohexyl)amino)pyridin-2-yl)amino)pyrimidin-2-yl)-N,N-dimethyl-1H-pyrazole-1-carboxamide] |
| 0.7 nM | 0.4 nM | 0.8 nM | 1.8 nM | 6.9 nM | 1.3 nM | 1 nM | 0.9 nM | 7.4 nM | > 10000 nM |  |  |  |  |  | O=S(=O)(C1CC1)n1cc(-c2nccc(Nc3cc(N[C@H]4CC[C@@H](NCC(F)F)CC4)c(-c4ccn(C(F)F)n4)cn3)n2)cn1 [Example 23, N^2-(2-(1-(Cyclopropylsulfonyl)-1H-pyrazol-4-yl)pyrimidin-4-yl)-N^4-((1s,4s)-4-((2,2-difluoroethyl)amino)cyclohexyl)-5-(1-(difluoromethyl)-1H-pyrazol-3-yl)pyridine-2,4-diamine] |
| 8.5 nM | 3.5 nM | 118 nM | 16.1 nM | 85.1 nM |  |  |  |  |  |  |  |  |  |  | Cn1ccc(-c2cnc(Nc3ccnc(-c4cnn(S(=O)(=O)C5CC5)c4)n3)cc2NCC2CCC(C(F)F)CC2)n1 (centres unmarked) [Example 152, N^2-(2-(1-(Cyclopropylsulfonyl)-1H-pyrazol-4-yl)pyrimidin-4-yl)-N^4-((4-(difluoromethyl)cyclohexyl)methyl)-5-(1-methyl-1H-pyrazol-3-yl)pyridine-2,4-diamine] |
